Measurements taken from patent US11458200B2, “Constructs, agents, and methods for facilitated ablation of cardiac tissue” (priority 2016, dated 2022).
“Also recorded” adds a separate entry of the source.

What was measured:
[1] = tested on: myocardium; settings: porcine model; cited from earlier work
[2] = tested on: epicardium; assay: Open-chest rodent survival model of epicardial RF ablation after IV quercetin; assay type: in vivo; settings: for Lesion Depth: 10 mg/kg
Experimental: Using an open-chest rodent survival model and a custom-made catheter, RF was applied to the epicardium at 3 W for 20 seconds after infusion of a HSP inhibitor, intravenous quercetin (n=20, 10 mg/kg), or control (n=20). Animals were sacrificed at 1 (n=10 each) and 24 hours (n=10 each) after ablation. RFA lesions were stained and analyzed under microscopy.

[3] = tested on: adenocarcinoma tumor; settings: combined quercetin and RF energy; cited from earlier work
[4] = 24 hours after RFA, 3 W for 20 seconds, IV 10 mg/kg, N 10

**Q.** Which “ablation lesion sizes after in vivo injection” value [1] does the source give for `[Gd]` [gadolinium] here?
**A.** increased lesion sizes; also recorded: larger lesions

**Q.** Which results are given for `O=c1c(O)c(-c2ccc(O)c(O)c2)oc2cc(O)cc(O)c12` [Quercetin, 3,3′,4′,5,7-pentahydroxyflavone]?
**A.** ablation lesions analyzed at 1 hour after RFA ([2]; 1 hour after RFA, IV 10 mg/kg): did not acutely result in larger ablation lesions; Volume [2, 4]: 37.6 ± 10.5 µL; Lesion Depth [2, 4]: 1.8 ± 0.3 mm; Lesion Depth ([2]; 24 hours after RFA, 3 W for 20 seconds, IV 10 mg/kg, N 10, listed as quercetin): 1.8±0.3 mm; lesion volumes ([2]; 24 hours after ablation, vs 25.7±8.6 control, p=0.01): 37.6 ± 10.5 µL; adverse events related to HSP inhibition ([2]; IV 10 mg/kg): No adverse events; microscopy of lesions compared to controls ([2]; in vivo): larger necrotic cores and border zones; HSP expression [3]: decreased HSP expression; apoptosis [3]: increased apoptosis; tumor destruction [3]: larger tumor destruction
